We go through one compound from patent US10390553B2, “Food containing histidine and use thereof” (AJINOMOTO CO., INC., priority 2013, dated 2019).

The subject of experiment [1] is CD2F1 mice after burden of insufficient sleep. Nature of the experiment: Locomotor activities in the dark phase after burden of insufficient sleep, continuous histidine administration. Format: in vivo, mouse. The note with it: 1.2 w/v % L-histidine solution drunk for 7 days, 1.2 g/kg body weight/day; SD+His vs SD+solvent. From the text: Using CD2F1 mice (9-week-old) and as shown in the experiment protocol of FIG. 1A, the mice were chronically allowed to drink a 1.2 w/v % L-histidine solution for 7 days in the histidine ingestion group (SD+His) to achieve a dose of 1.2 g/kg body weight/day. Water was given to the control group (CON) and the solvent ingestion group (SD+solvent). Then, the sleep disorder group (SD) was burdened by insufficient sleep for one day by filling water in the breeding cage at the depth of 0.5 cm. The burden was released at 6 hr from the start of the light phase (ZT6), and the mice were placed back in the home cage and allowed to rest for 6 hr. The control group was reared without burden in the home cage. Thereafter, they were transferred into a cage set under a locomotor activity measurement infrared sensor (Digital acquisition system; NS-DAS-32, Neuroscience Inc, Tokyo, Japan) under fasting and water-deprivation. The locomotor activities were measured and the data was collected by a multidigital counter (Neuroscience Inc, Tokyo, Japan).

Experiment [2] shares this test system. Nature of the experiment: Y-maze test, short-working memory after burden of insufficient sleep, single histidine administration. The experiment is classed as in vivo, mouse. The note with it: single oral dose 1.2 g/kg body weight at ZT14; Y-maze at ZT15; SD+His vs SD+solvent. From the text:
Using CD2F1 mice (9-week-old) and as shown in the experiment protocol of FIG. 3A, a burden of insufficient sleep is applied to sleep disorder group (SD) for two days. The burden was released at ZT6, and the mice were placed back in the home cage and allowed to rest for 6 hr. The control group (CON) was reared without burden in the home cage. A L-histidine solution was orally administered to a histidine administration group (SD+His) at 2 hr after the start of the dark phase after burden of insufficient sleep (ZT14), to achieve an L-histidine dose of 1.2 g/kg body weight. A solvent (water) was orally administered to the solvent administration group (SD+solvent) and the control group (CON). The Y-maze test was performed at 3 hr from the start of the dark phase (ZT15), and short-working memory was measured.

For experiment [3], the system named is males feeling decrease in the sleep quality and fatigue. Nature of the experiment: VAS questionnaires relating to mental energy, histidine ingestion for 14 days. The experiment is classed as in vivo, human. Conditions: 1.65 g daily for 14 days vs control food, p<0.05. The text has this:
Twenty males of 45 years old to less than 65 years old, who received total evaluation of not less than 17 points in the “self-diagnosis fatigue questionnaire” (Fatigue Science Laboratory Inc.) performed in advance, felt decrease in the quality of sleep (generally PSQI≥6), and obtained fatigue factor T scores of not less than 60 points in POMS, were selected, and randomly divided into 2 groups (10 per group). A crossover test, including ingesting histidine and control food (equal volume of cellulose) each for 14 days, was performed in each group. As shown in the experiment protocol of FIG. 4A, the test subjects ingested capsules containing 1.65 g of L-histidine as a daily ingestion amount (5 capsules (hard capsule #2 WHITE OP B/C) containing 0.33 g of L-histidine alone), or control sample capsules (5 capsules containing equal volume of cellulose) for 14 days. After the completion of 14 day ingestion, a 14 day resting period was taken. After the resting period, they ingested the capsules not ingested before the resting period. On the initial day and the day after completion of the capsule ingestion period, the test subjects answered POMS and the VAS questionnaires (fatigue, depression, vague sense, drowsiness, clear thinking, motivation, attentiveness, concentration) relating to mental energy, and cognitive function measurement task CogHealth (under higher difficulty conditions by simultaneously including mental arithmetic task as well) to measure recognition. Furthermore, they answered VAS questionnaires after completion of CogHealth.

Experiment [4] deals with males feeling decrease in the quality of sleep and fatigue. Nature of the experiment: VAS questionnaires relating to mental energy, single histidine ingestion. Format: in vivo, human. The note with it: single ingestion 1.65 g. From the text:
(§1) Twenty males of 45 years old to less than 65 years old, who received total evaluation of not less than 17 points in the “self-diagnosis fatigue questionnaire” (Fatigue Science Laboratory Inc.) performed in advance, felt decrease in the quality of sleep (generally PSQI≥6), and obtained fatigue factor T scores of not less than 60 points in POMS, were selected, and randomly divided into 2 groups (10 per group). The effect of single ingestion of histidine and control food (equal volume of cellulose) was compared in each group. As shown in the experiment protocol of FIG. 5A, the test subjects took the same meals for 3 days before the experiment, fasted for 10 to 14 hr, and ingested capsules containing 1.65 g of L-histidine as a single ingestion amount (5 capsules (hard capsule #2 WHITE OP B/C) containing 0.33 g of L-histidine alone), or control sample capsules (5 capsules containing equal volume of cellulose). Before and 1 hr after ingestion of capsules, the test subjects answered the VAS questionnaires (fatigue, depression, vague sense, drowsiness, clear thinking, motivation, attentiveness, concentration) relating to mental energy, and cognitive function measurement task CogHealth (under conditions with higher difficulty by simultaneously including mental arithmetic task as well) to measure recognition. Furthermore, they answered VAS questionnaires after completion of CogHealth.

For experiment [5] the test system is unchanged. Nature of the experiment: Cognitive function measurement task CogHealth, single histidine ingestion. Format: in vivo, human. Conditions: single ingestion 1.65 g, 1 hr after ingestion, vs control food.
Source text: as §1

Experiment [6] deals with mouse reared under 24 hr dark conditions. Nature of the experiment: Biorhythm phase regulating action, locomotor behavioral pattern in free run cycle under 24 hr dark conditions. Format: in vivo. The note with it: for phase shift of the behavior start time (circadian rhythm): feed with 45 mg L-histidine per 1 g, 4 hours per day for 4 days. Here is the method: A phase regulating action of histidine on a mouse reared under 24 hr dark conditions was evaluated. When a mouse is reared under 24 hr dark conditions, the mouse starts to act in a cycle specific to the biological clock (also referred to as free run, meaning freed from synchrony), since the outside information (light-dark cycle of light) cannot be obtained. When the free run cycle is converted to 24 hr and indicated as circadian time on the horizontal axis, 12 hours of the former half thereof is called a subjective light period (time zone judged to be daytime by biological clock: CT0-12), and the latter half is called a subjective dark period (time zone judged to be night by biological clock: CT12-24). Under such conditions, locomotor activity of mice (behavioral pattern in free run cycle) was measured using an emission infrared detector type locomotor activities sensor (Digital acquisition system; NS-AS01, Neuroscience Inc, Tokyo, Japan). Furthermore, a feed added with 45 mg of L-histidine per 1 g of a general feed was prepared, and used to replace the general feed for only 4 hours in one day to allow for ingestion. The time zone for ingestion was CT2-6 (subjective light period) or CT14-18 (subjective dark period). Such replacement of the feed was performed for 4 days, and change of phase of the behavioral pattern was judged.

[7] abbreviates: before cognitive functioning test.
[8] abbreviates: 1 hr after ingestion, before cognitive functioning test, p<0.05.

On to `N[C@@H](Cc1c[nH]cn1)C(=O)O` [histidine, L-histidine], for which, in experiment [1], the “locomotor activities in the dark phase” value is given as “significant suppression of a decrease of locomotor activities in the dark phase”. In addition, the “alternation behavior (short-working memory)” value in experiment [2] is “significant suppression of a decrease of alternation behavior”. In experiment [3] (after completion of CogHealth), the “VAS sense of attentiveness” value is recorded as “significantly increased”, the “VAS sense of depression” value is given as “significantly decreased” and the “VAS sense of motivation” value is on record as “significantly increased”. Besides, in experiment [3] (setting [7]), the “VAS sense of attentiveness” value is given as “significantly increased”, the “VAS sense of clear thinking” value is “significantly increased” and the “VAS sense of motivation” value is listed as “significantly increased”. Moreover, the “VAS sense of concentration” value in experiment [4] (1 hr after ingestion, before cognitive functioning test) is on record as “tended to increase”. Also, in experiment [4] (setting [8]), the “VAS sense of attentiveness” value was “significantly increased” and the “VAS sense of clear thinking” value is listed as “significantly increased”. Moreover, in experiment [4] (after completion of CogHealth), the “VAS sense of concentration” value is given as “tended to increase” and the “VAS sense of depression” value was “tended to decrease”. In addition, the “VAS sense of vagueness” value in experiment [4] (after completion of CogHealth, p<0.05) is “significantly decreased”. For the same compound, in experiment [5], the “indices relating to cognition” value is “did not show a significant change” and the “work time in 5 kinds of brain function measurement indices” value is reported as “shortened”. Further, in experiment [6] (ingestion in CT2-6 (subjective light period)), the “phase shift of the behavior start time (circadian rhythm)” value is “significantly advances”. In addition, in experiment [6] (ingestion in CT14-18 (subjective dark period)), the “phase shift of the behavior start time (circadian rhythm)” value was “tended to advance”. Further, in experiment [6] (ingestion of histidine in CT2-6, n=4), the “shortening of the cycle of activity rhythm, mean” value stood at 0.34 ± 0.08 h.
